In patent publication US20240290976A1, “CYCLOTETRABENZIL COMPOUNDS FOR ELECTROCHEMICAL LITHIUM-ION STORAGE” (UNIVERSITY OF HOUSTON SYSTEM, priority 2023, published 2024):
Converted amounts (≈) assume the structure as drawn. “And” between values parts separate entries of the source, which are not always exact repeats. Identical values can stand only once.

Legend:
[1] = Solubility tests in 0.5M LiTFSI DME/DOL electrolyte; type: physicochemical; conditions: 0.5M LiTFSI in DME/DOL (v:v=1:1)
Description: In an argon-filled glovebox, certain mass of compounds 1-4 solids were added to vials. Then, 0.5M solution of LiTFSI in DME/DOL (v:v=1:1) was slowly added dropwise and the mixture was manually stirred until all material visibly dissolved. The amount of LiTFSI solution used was recorded to determine the solubility of each compound in the electrolyte. The order of solubility from highest to lowest is compound 4 (163.7 mmol L^−1), compound 1 (12.48 mmol L^−1), compound 2 (3.57 mmol L^−1), and compound 3 (2.76 mmol L^−1).

[2] = UV-vis of soaked solutions from cathode/separator at 50% state-of-discharge; type: physicochemical; conditions: ~360 nm; 50% state-of-charge; DME/DOL
Description: The CR2032 coin cell with cathode 2 or cathode 4 was discharged at the rate of 100 mA g^−1 until 50% state-of-discharge and was disassembled in an argon-filled glovebox. Then, the cathode and separator were immersed into 1.0 mL DME/DOL(1/1 v %) solvent for 6h. For the UV-vis absorption measurements, 30 μL of solution was extracted from the soaked vials and diluted with 3000 μL of DME/DOL solvent.

Row | solubility in the electrolyte [1] | melting point | absorbance intensity of soaked solution, higher than that of compound 2 [2] [%] | SMILES
1 | 12.48 mM (≈ 6600 µg/mL) |  |  | O=C1C(=O)c2ccc(cc2)C(=O)C(=O)c2ccc(cc2)C(=O)C(=O)c2ccc(cc2)C(=O)C(=O)c2ccc1cc2 [compound 1]
2 | 3.6 ± 0.1 mM and 3.57 mM | > 360 °C (dec.) |  | O=C1C(=O)c2ccc3cc(ccc3c2)C(=O)C(=O)c2ccc3cc(ccc3c2)C(=O)C(=O)c2ccc3cc(ccc3c2)C(=O)C(=O)c2ccc3cc1ccc3c2 [compound 2]
3 | 2.76 mM (≈ 2300 µg/mL) | 332 to 334 °C |  | O=C1C(=O)c2ccc(cc2)-c2ccc(cc2)C(=O)C(=O)c2ccc(cc2)-c2ccc(cc2)C(=O)C(=O)c2ccc(cc2)-c2ccc(cc2)C(=O)C(=O)c2ccc(cc2)-c2ccc1cc2 [compound 3]
4 | 164 ± 1 mM and 163.7 mM |  | 300 | O=C(C(=O)c1ccc2ccccc2c1)c1ccc2ccccc2c1 [compound 4, 1,2-bis(2-naphthyl)ethan-1,2-dione, reference compound]
